Like-named read-outs stand apart in the source and are kept apart here. One block for each compound: values may come before it.
What was measured:
[1] = system: MIA-PACA2 pancreatic cancer cell lines; assay: Cell proliferation assay (CellTiter 96 AQueous One); assay type: cell-based; conditions: Homo sapiens, MIA PaCa-2; for inhibition at 30 µM: MIA-PACA2
Method: (§1) Cell lines: Tumor-derived pancreatic cancer cell lines MIA-PACA2 were purchased from ATCC and grown in complete DMEM-High Glucose medium supplemented with penicillin (100 U/mL), streptomycin (100 μg/mL), and 10% heat-inactivated FBS at 37° C. in a humidified incubator with 5% CO2.
Method: Cells are plated at 1000 cells/well density in 96-wells plate, starved ON, and the next day tested small molecules are added to the cells in the final concentration of 30 μM with 0.3% DMSO 3 hours prior to 10% FBS addition. After serum addition cells are incubated for 6 days at 37° C. in a humidified incubator with 5% CO2. For IC50 value determination, serial dilutions of compounds were added to cells under the same conditions.
Assay: At the end of the incubation period, cell cultures are tested using the CellTiter 96® AQueous One Solution Cell Proliferation Assay kit (Promega Corporation, Madison, Wis.) according to the manufacturer specifications. Briefly, assay is performed by adding 20 μl of the CellTiter 96 Aqueous One Solution Reagent directly to culture wells, followed by for 1-4 hours incubation at 37° C. in a humidified incubator with 5% CO2. At the end of incubation time, absorbance at 492 nm is recorded with the 96-well plate reader Eppendorf AF2200, and degree of small molecule-dependent proliferation inhibition is calculated from raw data assuming No Serum cells value as 100%.

KRas G12D mutant protein = KRas G12D mutant protein (Homo sapiens (Human), UniProt P01116, G12D); assay: Ras GTP binding domain inhibition assay
Method: The following method was developed as specific assay for KRas G12D mutant protein.
(§2) Buffer-I: • 50 mM Tris, pH 7.5 • 150 mM NaCl (optional) • 1 mM MgCl2 • 1 mM DTT. • KRas G12D mutant protein was expressed as a His-tagged protein. Purified His-KRas G12D protein was diluted in buffer-I to a final concentration of 3-10 μg/ml. • 200 μl of the diluted His-KRas G12D protein was added to a nickel coated 96 well plate and incubated overnight at 4° C. • The next day, wells were washed 3× in 200 μl of Buffer-I. • Then 200 μl of Buffer-I were added to each well in the presence of 1% DMSO. • Tested compounds were added to the protein-coated wells at a concentration of 20 μM, and incubated for 3 hours at room temperature. While performing IC50 measurements a serial dilution of all tested concentrations was prepared.
(§3) Then 22 μl of Cy3-GTP or Cy5-GTP was added to each well. The labeled GTP was incubated for 45 min. at room temperature. • Following GTP incubation, wells were washed 3× in Buffer-I, and 200 μl of Buffer-I were added to each well. • Following washes, the amount of bound labeled-GTP was measured with an Eppendorf AF2200 plate reader.

[2] = target: KRas G12D/Q61H double mutant (Homo sapiens (Human), UniProt P01116, G12D/Q61H); assay: Ras GTP binding domain inhibition assay; conditions: 20 μM compound; read-out: % Inhibition at 20 μM, KRas G12D Q61H
Method: as §2, §3
(§4) By substituting KRas G12D mutant protein with KRas G12C mutant, KRas wild type, KRas Q61H mutant, KRas G12D/Q61H double mutant or KRas G12C/Q61H double mutant under the assay conditions described above, KRas G12C mutant KRas wild type, KRas Q61H mutant, KRas G12D/Q61H double mutant and KRas G12C/Q61H double mutant inhibition, respectively, were each determined.

KRas G12C mutant = KRas G12C mutant (Homo sapiens (Human), UniProt P01116, G12C); assay: Ras GTP binding domain inhibition assay; conditions: 20 μM compound
Method: as §2, §3, §4

KRas wild type = KRas wild type (Homo sapiens (Human), UniProt P01116); assay: Ras GTP binding domain inhibition assay; conditions: 20 μM compound
Method: as §2, §3, §4

[3] = system: MIA-PACA2 pancreatic cancer cell lines; assay: Cell proliferation assay, alternate assay conditions (DAPI staining); assay type: cell-based; conditions: Homo sapiens, MIA PaCa-2; for inhibition at 10 µM: * = tested at 10 μM, alternate conditions, MIA-PACA2
Method: as §1
Method: Cells are plated at 4000 cells/well density in 96-wells plate. The next day tested small molecules are added to the cells in the final concentration of 10 μM in the presence of 0.3% DMSO and 10% FBS. After small molecules addition, cells are incubated for 4 days at 37° C. in a humidified incubator with 5% CO2. For IC50 value determination, serial dilutions of compounds were added to cells under the same conditions.
Assay: At the end of the incubation period, cell cultures are fixed with a 50-50 mixture (v/v) acetone-methanol for 10 minutes at −20° C., followed by rehydration in PBS for 10 minutes at room temperature. After rehydration, cells are stained with DAPI (1 μg/ml) in PBS for 10 minutes at room temperature, followed by 3 washes with PBS. After staining, DAPI fluorescence is recorded (358 nm excitation/461 nm emission) with the 96-well plate reader Molecular Devices Spectramax M3; degree of small mole-cule-dependent proliferation inhibition is calculated from raw data assuming No Serum cells value as 100%.

[4] = target: KRas G12C/Q61H double mutant (Homo sapiens (Human), UniProt P01116, G12C/Q61H); assay: Ras GTP binding domain inhibition assay; conditions: 20 μM compound
Method: as §2, §3, §4

KRas Q61H mutant = KRas Q61H mutant (Homo sapiens (Human), UniProt P01116, Q61H); assay: Ras GTP binding domain inhibition assay; conditions: 20 μM compound
Method: as §2, §3, §4

[5] = system: MAPK phosphorylation in PANC-1 pancreatic cancer cell line; assay: MAPK cell-based phosphorylation assay (cell-direct ELISA, EGF-stimulated); conditions: Homo sapiens, 30 μM
Method: Cell lines: Tumor-derived pancreatic cancer cell lines PANC-1 were purchased from ATCC and were maintained according to ATCC recommendation.
Method: Cells were plated at 7500 cells/well density in 96-wells plate, starved over night, and the small molecules to be tested were added to the cells in the final concentration of 30 μM with 0.3% DMSO for 6 hours incubation at 37° C. For IC50 value determination, serial dilutions of compounds were added to cells under the same conditions. Next, cells were stimulated with 1.5 ng/ml EGF for 15 min. followed by cell fixation with 4% Formaldehyde in PBS at RT for 20 min. Phosphorylation level of MAPK was determined by Cell-direct ELISA.
Cell-direct ELISA: For each well, cells were permeabilized with PBS-Triton 0.1%, quenched with H2O2 0.6% in PBS-Triton 0.1%, and probed with anti-phospho-MAPK antibodies (R&D Systems) followed by HRP-conjugated secondary antibody (Jackson Immunoresearch, West Grove, Pa.). Next, a solution 50 μM of the fluorescent substrate AmpliFlu Red (Sigma) was added and incubated at RT for 20 min. At the end of the incubation time, fluorescence was measured at 595 nm on a microplate reader (AF2200; Eppendorf, Inc., Hamburg, Germany).

Rho-A = Rho-A (Homo sapiens (Human), UniProt P61586); assay: Rac and Rho inhibition assay; assay type: binding; conditions: read-out: Rho-A % Inh.
Method: as §2, §3
(§5) By substituting KRas G12D mutant protein with either Rac-1 or Rho-A under the assay conditions described in Example 5, Rac-1 and Rho-A inhibition, respectively, were each determined.

Rac-1 = Rac-1 (Homo sapiens (Human), UniProt P63000); assay: Rac and Rho inhibition assay; assay type: binding; conditions: read-out: Rac-1 % Inh.
Method: as §2, §3, §5

[6] = 20 μM compound, read-out: % Inhibition at 20 μM, KRas G12D

Chain of KRas G12D mutant protein (P01116-2 other isoform, or with tags, fused parts or gaps G12D): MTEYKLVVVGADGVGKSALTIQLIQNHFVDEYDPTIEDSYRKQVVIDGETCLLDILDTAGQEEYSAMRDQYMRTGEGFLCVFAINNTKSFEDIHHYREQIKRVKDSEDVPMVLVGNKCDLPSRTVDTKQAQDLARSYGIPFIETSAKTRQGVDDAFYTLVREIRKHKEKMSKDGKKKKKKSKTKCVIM
Chain of KRas G12C/Q61H double mutant (P01116-2 other isoform, or with tags, fused parts or gaps G12C/Q61H): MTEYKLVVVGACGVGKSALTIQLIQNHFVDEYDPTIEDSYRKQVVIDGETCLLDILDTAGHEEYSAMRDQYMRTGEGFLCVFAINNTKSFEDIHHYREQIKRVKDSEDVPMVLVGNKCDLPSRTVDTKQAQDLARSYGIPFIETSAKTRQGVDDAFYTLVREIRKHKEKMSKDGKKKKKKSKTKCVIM
Chain of KRas wild type (P01116-2 other isoform, or with tags, fused parts or gaps): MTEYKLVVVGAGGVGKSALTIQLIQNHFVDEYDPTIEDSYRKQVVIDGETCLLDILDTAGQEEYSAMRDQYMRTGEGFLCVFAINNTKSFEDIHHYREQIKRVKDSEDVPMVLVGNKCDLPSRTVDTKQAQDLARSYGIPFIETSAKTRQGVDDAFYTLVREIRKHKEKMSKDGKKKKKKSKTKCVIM
Chain of KRas Q61H mutant (P01116-2 other isoform, or with tags, fused parts or gaps Q61H): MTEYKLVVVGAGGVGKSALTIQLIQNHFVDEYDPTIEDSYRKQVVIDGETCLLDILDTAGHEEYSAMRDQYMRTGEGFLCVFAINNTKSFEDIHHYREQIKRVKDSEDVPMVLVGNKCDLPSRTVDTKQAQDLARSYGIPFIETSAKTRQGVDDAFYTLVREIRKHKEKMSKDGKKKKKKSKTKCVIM
Chain of KRas G12D/Q61H double mutant (P01116-2 other isoform, or with tags, fused parts or gaps G12D/Q61H): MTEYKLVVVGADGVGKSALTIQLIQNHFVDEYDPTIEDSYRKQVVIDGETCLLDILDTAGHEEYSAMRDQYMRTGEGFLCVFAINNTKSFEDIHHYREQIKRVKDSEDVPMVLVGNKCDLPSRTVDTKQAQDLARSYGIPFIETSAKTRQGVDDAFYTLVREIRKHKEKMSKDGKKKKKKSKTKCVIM
Chain of KRas G12C mutant (P01116-2 other isoform, or with tags, fused parts or gaps G12C): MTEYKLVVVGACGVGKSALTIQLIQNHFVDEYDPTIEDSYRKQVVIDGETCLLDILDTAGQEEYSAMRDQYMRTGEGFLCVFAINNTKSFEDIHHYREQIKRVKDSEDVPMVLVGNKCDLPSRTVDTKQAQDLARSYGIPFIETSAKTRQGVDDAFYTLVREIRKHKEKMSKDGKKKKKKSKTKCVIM
Chain of Rho-A (P61586 whole entry): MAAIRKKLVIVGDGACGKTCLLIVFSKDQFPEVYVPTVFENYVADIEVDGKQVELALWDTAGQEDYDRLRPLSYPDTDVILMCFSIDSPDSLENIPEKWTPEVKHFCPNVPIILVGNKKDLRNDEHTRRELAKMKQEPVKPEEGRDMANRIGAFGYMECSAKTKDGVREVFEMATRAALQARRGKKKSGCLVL

Compound: COc1cncc(CCNC(=O)c2csc3nc(-c4ccccn4)nc(N4CCOCC4)c23)c1
inhibition at 30 µM [1]: 51 to 75%

Compound: O=C(CCCc1cccnc1)N1CCCc2c(O)nc(C3C=CC=CN3)nc21 (stereo not shown)
inhibition at 20 µM (KRas G12D mutant protein; [6]): 51 to 75%
inhibition at 20 µM [2]: 51 to 75%
inhibition at 20 µM (KRas G12C mutant): 51 to 75%
inhibition at 20 µM (KRas wild type): 25 to 50%

Compound: COc1nc(-c2ccccn2)nc2c(-c3cccc(O)c3)csc12
inhibition at 10 µM [3]: 76 to 100%

Compound: COCCCCNC(=O)c1csc2nc(-c3ccccn3)nc(N3CCSCC3)c12
inhibition at 30 µM [1]: 1 to 25%

Compound: COc1nc(-c2ccccn2)nc2c(-c3cccc(C#N)c3)csc12
inhibition at 10 µM [3]: 76 to 100%

Compound: O=C(Nc1nnc(-c2ccccc2)[nH]1)c1ncoc1-c1cccs1
inhibition at 30 µM [5]: 25 to 50%

Compound: O=C(NCCc1cnc(O)nc1)c1csc2nc(-c3ccccn3)nc(N3CCSCC3)c12 [drawing 1764]
inhibition at 30 µM [1]: 1 to 25%

Compound: SOCCNc1nc(-c2ccccn2)nc2sc(-c3ccccc3)c(-c3ccccn3)c12
inhibition at 10 µM [3]: 76 to 100%

Now from value to compound, other results behind:

inhibition at 20 µM (KRas G12D mutant protein; [6]): 1 to 25%
inhibition at 20 µM (KRas G12C mutant): 1 to 25%
inhibition at 20 µM (KRas wild type): 1 to 25%
Compound: Cc1cccc(-c2c(C)sc3c(O)nc(-c4nccn4C)nc23)c1

inhibition at 20 µM [2]: 25 to 50%
inhibition at 20 µM [4]: 51 to 75%
inhibition at 20 µM (KRas Q61H mutant): 51 to 75%
Compound: Nc1nc(-c2ccccn2)nc2c(CC3CNC3)csc12

IC50 ([3]; MIA-PACA2 proliferation, same assay as % inhibition (alternate conditions)): 0.501 to 1 µM
Compound: COOCCNc1nc(-c2nccn2C)nc2sc(-c3ccccc3)c(-c3ccccc3)c12
inhibition at 10 µM [3]: 76 to 100%

inhibition at 20 µM (Rho-A): 25 to 50%
inhibition at 20 µM (Rac-1): 25 to 50%
inhibition at 20 µM (KRas G12D mutant protein; at 20 μM, read-out: KRas G12D % Inh.): 1 to 25%
Compound: CC(O)ONc1nc(-c2nccn2C)nc2sc(-c3ccccc3)c(-c3ccccc3)c12 (stereo not shown)

inhibition at 20 µM [2]: 1 to 25%
inhibition at 20 µM [4]: 1 to 25%
inhibition at 20 µM (KRas Q61H mutant): 1 to 25%
Compound: Cc1nc(-c2nccn2C)nc2sc(-c3ccccc3)c(-c3ccccc3)c12

inhibition at 20 µM [2]: 1 to 25%
inhibition at 20 µM [4]: 1 to 25%
inhibition at 20 µM (KRas Q61H mutant): 1 to 25%
Compound: Cc1nc(-c2cn(C)cn2)nc2sc(-c3ccc(CNC(=O)OC(C)(C)C)cc3)c(-c3ccccc3)c12

IC50 ([1]; MIA-PACA2 proliferation, compound tested under both conditions, IC50 assay conditions not specified): > 1 µM
Compound: Nc1nc(-c2ccccn2)nc2c(-c3ccccn3)csc12
inhibition at 30 µM [1]: 76 to 100%
inhibition at 10 µM [3]: 76 to 100%

inhibition at 20 µM (KRas G12D mutant protein; [6]): 25 to 50%
inhibition at 20 µM (KRas G12C mutant): 1 to 25%
inhibition at 20 µM (KRas wild type): 1 to 25%
Compound: Cc1ccc(-c2csc3c(O)nc(-c4nccn4C)nc23)c(F)c1

inhibition at 20 µM (KRas G12D mutant protein; [6]): 0%
inhibition at 20 µM (KRas G12C mutant): 1 to 25%
inhibition at 20 µM (KRas wild type): 1 to 25%
Compound: COCCOc1nc(-c2ccncn2)nc2sc(-c3ccccc3)c(-c3ccccc3)c12

— patent US11541041B1, “Compounds that interact with the Ras superfamily for the treatment of cancers, inflammatory diseases, Rasopathies, and fibrotic disease” (Shy Therapeutics LLC, priority 2017, dated 2023)
